# According to patent US8987449B2, “Medicine for treating ischemic brain injury and its sequelae, and preparation method thereof” (Haimin Lei, priority 2011, dated 2015):
# Columns and labels:
# MCAO rats = test: Beam walking test of MCAO rats; format: in vivo, rat; settings: 0-6 points; for beam walking Evaluation (3 d): model group 1.47 ± 0.84; for beam walking Evaluation (7 d): model group 1.92 ± 2.02
# From the text: 140 healthy SD male rats, weighing 280-300 g, provided by Beijing Vital River Laboratories, certificate No.: SCXK (Jing) 2002-2003. The method of [Koizumi J, Yoshida […]. Experimental studies of ischemia brain edema, I: A new experimental model of cerebral embolism in rats in which recirculation can be introduced in the ischemic area[J]. […] After the rats were anesthetized and the skin thereof was disinfected by ethanol. By cutting right in the middle of the neck, the right common carotid artery, internal carotid artery and external carotid artery were separated and the common carotid artery and external carotid artery were ligated. The internal carotid artery was clamped with a bulldog clamp. A cut was made at the crotch of the external carotid artery and the internal carotid artery followed by releasing the bulldog clamp. […] Next, the external carotid artery was ligated and the nylon wire was fixed. In sham operation group, the right common carotid artery, the external carotid artery and the internal carotid artery were only exposed and separated. The rats were routinely raised in different cages. 0.5 ml penicillin was continuously injected into every mouse for three days after the surgery. […] The rats getting 1-3 point were selected for the subsequent experiment. The MCAO rats having the same point were distributed randomly and averagely to each experimental group. […] Beam walking test was used to evaluate the motor coordination and the integration defect after the cerebral ischemia damage. […] There was a dark box attached to one end of the beam and the rats were stimulated by noise to walk through the beam into the dark box. […] The rats were trained before the ischemia for 5 days until all the rats can get 6 point. The third and the seventh days after administration was set as the observation time to carry out the test. The SPSS 11.0 software pack was used to carry out the statistical analysis of all the data. The comparison of the enumeration data was carried out with X^2 test P<0.05 had statistical meaning.
# Ca^2+—Mg^2+ ATPase = test: Ca2+-Mg2+ ATPase of MCAO rats (brain homogenate, kit); format: in vivo, rat; settings: ischemia side brain homogenate, model group 5.32 ± 2.61
# Procedure: 140 healthy SD male rats, weighing 280-300 g, provided by BeiJing Vital River Laboratories, certificate No.: SCXK (Jing) 2002-2003.
# 1.3 Experimental reagents: 0.9% physiological saline, Ca^2+—Mg^2+ enzyme kit
# 10% chloral hydrate 0.35 g/kg was injected into the abdominal cavity of a rat to anesthetize thereof. The rat was fixed as supine position. The skin was disinfected thereof by 75% medical alcohol. It was cut right in the middle of the neck. The right common carotid artery, internal carotid artery and external carotid artery were separated and the common carotid artery and external carotid artery were ligated. The internal carotid artery was clamped with a bulldog clamp. A cut was made at the crotch of the external carotid artery and the internal carotid artery followed by releasing the bulldog clamp. The nylon wire (diameter 0.25 mm, marked at a distance of 18 mm from the head end) was inserted into the cut and the insertion was stopped when some resistance was felt. The insert depth was a little longer than 18 mm to achieve the cerebral ischemia caused by middle cerebral artery occlusion. The internal carotid artery was ligated and the nylon wire was fixed. The muscle and skin were sutured layer by layer. In sham operation group, the right common carotid artery, the external carotid artery and the internal carotid artery were only exposed and separated. The rats were conventionally raised in different cages regularly. 0.5 ml penicillin was continuously injected into every rat for three days after the surgery.
# The rat condition was evaluated after 6 h after the surgery when the rats were conscious according to the Zea Longa 5 grades evaluating method, wherein no apparent neurological symptom was evaluated as 0 point; not being able to completely stretch the left front claw was evaluated as 1 point; whirling leftward was evaluated as 2 point; leaning leftward when walking was evaluated as 3 point; having an epileptic seizure, losing consciousness and not being able to walk independently was evaluated as 4 point. The rats getting 1-3 point were selected for the subsequent experiment.
# The rats were divided into 7 groups in the experiment, that is, sham operation group, model group, Nimodipine group, LQC-T4 large dosage group, LQC-T4 small dosage group, TMP group, and TMP+Vanillic acid group. The model rats getting 1 point were distributed randomly into the model group and other administration group, while the rats getting 2 point and 3 point were distributed randomly into above 6 groups according the above method and sham operation group was not involved in the above grouping. […]
# [1] = 60 mg/kg intragastrically once a day
# [2] = 120 mg/kg intragastrically once a day
structure (smiles),measurement,setting,value
"COCCOC(=O)C1=C(C)NC(C)=C(C(=O)OC(C)C)C1c1cccc([N+](=O)[O-])c1 (stereo not drawn) [Nimodipine, reference compound]",beam walking Evaluation (3 d),MCAO rats; 30 mg/kg once a day,2.71 ± 1.49
same,beam walking Evaluation (7 d),MCAO rats; 30 mg/kg once a day,3.50 ± 1.71
same,Ca—Mg ATPase activity,Ca^2+—Mg^2+ ATPase; 30 mg/kg once per day for 10 days,13.25 ± 5.73
"COc1cc(C(=O)OCc2nc(C)c(C)nc2C)ccc1OCc1nc(C)c(C)nc1C [LQC-T4, (3,5,6-trimethylpyrazine-2-yl)methyl 3-methoxy-4-((3,5,6-trimethylpyrazine-2-yl)methoxy) benzoate]",beam walking Evaluation (3 d),MCAO rats; [1],3.6 ± 1.76
same,beam walking Evaluation (7 d),MCAO rats; [1],3.83 ± 1.70
same,beam walking Evaluation (3 d),MCAO rats; [2],2.88 ± 1.62
same,beam walking Evaluation (7 d),MCAO rats; [2],3.20 ± 1.66
same,Ca—Mg ATPase activity,Ca^2+—Mg^2+ ATPase; 60 mg/kg intragastrically once per day for 10 days,8.91 ± 4.05
same,Ca—Mg ATPase activity,Ca^2+—Mg^2+ ATPase; 120 mg/kg intragastrically once per day for 10 days,10.07 ± 5.15
"Cc1nc(C)c(C)nc1C [TMP, tetramethylpyrazine, reference compound]",beam walking Evaluation (3 d),MCAO rats; 37 mg/kg once a day,2.86 ± 1.79
same,beam walking Evaluation (7 d),MCAO rats; 37 mg/kg once a day,2.40 ± 2.32
same,Ca—Mg ATPase activity,Ca^2+—Mg^2+ ATPase; 37 mg/kg once per day for 10 days,9.13 ± 4.11
